The nature of series [1]: Lipid maldigestion or malabsorption rat model (XENICAL-induced): EPA level in red blood cell and tissue lipids. The conditions noted are these: rats. Format: in vivo. Here is the method: The concept was tested in a lipid maldigestion or malabsorption rat model. The maldigestion or malabsorption condition was obtained using XENICAL® (ORLISTAT), a pancreatic and gastric lipases inhibitor (tetrahydrolipstatin; see FIG. 7). Rats were fed during 21 days with long-chain polyunsaturated fatty acid (LC-PUFA) supplements containing mainly eicosapentaenoic (EPA) acid. Fish oil was used as a source of triacylglycerols, and different EPA glycerides were evaluated. XENICAL® (ORLISTAT) was given at a level sufficient to decrease lipid absorption by 40%. A group receiving fish oil without XENICAL® (ORLISTAT) was used as a positive control. At different time intervals (D3, D7, […]), the fatty acid profiles of red blood cell and plasma lipids were determined. At the end of the experiment, the fatty acid profiles of different tissues were determined. The main objective was to follow the level of EPA in red blood cell and plasma lipids. The main comparison evaluated was the difference in EPA level between the group receiving EPA-containing sn-1(3) MAG in combination with XENICAL® (ORLISTAT) and the positive control group (fish oil+XENICAL® (ORLISTAT)).

Series [2] in a line: Clinical study: delivery of EPA by sn-1(3) MAG vs fish oil (TAG) under XENICAL (ORLISTAT)-induced lipid maldigestion. Format: in vivo, humans. The procedure:
This clinical study compared the efficacy of sn-1(3) MAG and fish oil (TAG) in delivering EPA in humans under lipid maldigestion conditions induced by XENICAL® (ORLISTAT). The comparison was tested in volunteers having a BMI of 37-40 kg/m^2 and treated with ORLISTAT® to induce lipid maldigestion or not treated with XENICAL® (ORLISTAT). The primary objective was to assess accretion of EPA in erythrocytes over 21 days when consumed as fish oil (TAG) or sn-1(3) MAG. The secondary objectives were to assess accretion of EPA in plasma over 21 days and also to assess the pharmacokinetics of EPA after an acute dose either in the form of sn-1(3) MAG or TAG (AUC in chylomicrons over 10 hours postprandial).

Molecules are shown by their SMILES.

For `CCCCCCCCCCC[C@@H](C[C@@H]1OC(=O)[C@H]1CCCCCC)OC(=O)[C@H](CC(C)C)NC=O` [XENICAL® (ORLISTAT), tetrahydrolipstatin, reference compound], the “EPA incorporation in red blood cells” value in series [1] (day 7, fish oil + XENICAL vs fish oil without XENICAL) was “decreases EPA incorporation in red blood cells”.
On to `CC/C=C\C/C=C\C/C=C\C/C=C\C/C=C\CCCC(=O)OC[C@@H](O)CO` [sn-1(3) MAG, 1,3 MAG-EPA], for which the “chronic effect: accretion of EPA in erythrocytes after 21 days” value in series [2] (humans, with XENICAL, vs fish oil and XENICAL, p=0.0001) is reported as “statistically significant”. Also, the “chronic effect: accretion of EPA in plasma after 21 days” value in series [2] (humans, with XENICAL, vs fish oil and XENICAL, p=0.0003) is “statistically significant”. The “carrier for EPA compared with fish oil (TAG)” value in series [2] (obese subjects treated with XENICAL) is “better carrier for EPA than fish oil”. In addition, the “incorporation of LC-PUFAs in tissue” value in series [1] (conditions of lipid maldigestion or malabsorption) was “improved”.

The values above are taken from patent US20160263072A1, “MONOACYLGLYCEROLS AND FAT-SOLUBLE NUTRIENTS FOR USE IN THE TREATMENT OF MALABSORPTION HAVING A NON-MECHANICAL BASIS” (NESTEC S.A., priority 2013, published 2016).
